# Reference: paper PMC9958325 (Nature Communications, 2023)
# Several values for one entry are separate records, joined by “and”; a condition that tells them apart may be missing. Identical values can stand only once. Like-named read-outs stand apart in the source and are kept apart here.
# Columns and labels:
# [1] = system: SARS-CoV-2 TY8-612/β; assay: microbe, parasite or virus in culture; assay type: cell-based
# [2] = system: SARS-CoV-2 5356/κ; assay: microbe, parasite or virus in culture; assay type: cell-based
# [3] = system: SARS-CoV-2 TY7-501/γ; assay: microbe, parasite or virus in culture; assay type: cell-based
# [4] = system: SARS-CoV-2 QHN001/α; assay: microbe, parasite or virus in culture; assay type: cell-based
# [5] = system: SARS-CoV-2 K1734/δ; assay: microbe, parasite or virus in culture; assay type: cell-based
# [6] = system: SARS-CoV-2^WK-521; assay: microbe, parasite or virus in culture; assay type: cell-based; settings: read-out: EC50 in cell-based assays
# [7] = system: SARS-CoV-2 Delta, BA.1 and BA.2 variants; parameters: species or system hACE2 knock-in mice; settings: mouse, in vivo, ip
# [8] = system: SARS-CoV-2 Delta, BA.1 and BA.2 variants; parameters: species or system hACE2 knock-in mice; settings: mouse, in vivo
# [9] = biological target: Glycine-added M^pro (Severe acute respiratory syndrome coronavirus 2, UniProt P0DTD1)
# [10] = read-out: EC50 β, individual assays
# [11] = read-out: EC50 κ, individual assays
# [12] = read-out: EC50 γ, individual assays
# [13] = read-out: EC50 α, individual assays
# [14] = read-out: EC50 δ, individual assays
# [15] = read-out: EC50 against TY8-612/β
# [16] = read-out: EC50 against Y7-501/γ
# [17] = read-out: EC50 against QHN001/α
Compound,"EC50 [1, 10]","EC50 [2, 11]","EC50 [3, 12]","EC50 [4, 13]","EC50 [5, 14]","EC50 [1, 15]","EC50 ([1]; read-out: EC50 β, Average)","EC50 ([2]; read-out: EC50 κ, Average)","EC50 [3, 16]","EC50 ([3]; read-out: EC50 γ, Average)","EC50 [4, 17]","EC50 ([4]; read-out: EC50 α, Average)","EC50 ([5]; read-out: EC50 δ, Average)",Effect on lung virus titers (in words) [7],other results
"CC(C)(C)[C@H](NC(=O)C(F)(F)F)C(=O)N1C[C@H]2[C@@H]([C@H]1C(=O)N[C@H](C#N)C[C@@H]1CCNC1=O)C2(C)C [Nirmatrelvir, reference compound]",1700 nM and 1230 nM,1650 nM and 2270 nM and 1060 nM,2200 nM and 2780 nM,1420 nM,1420 nM and 1570 nM,,,,,,,,,,"EC50 ([1]; Severe acute respiratory syndrome coronavirus 2, Vero C1008, read-out: EC50 against TY8-612/β): 1500 ± 240 nM; EC50 ([1]; Severe acute respiratory syndrome coronavirus 2, Vero C1008, read-out: EC50 β, Average): 1500 nM; EC50 ([1]; Severe acute respiratory syndrome coronavirus 2, Vero C1008, read-out: EC50 β, individual assays): 1560 nM; EC50 ([2]; Severe acute respiratory syndrome coronavirus 2, Vero C1008, read-out: EC50 against 5356/k): 1660 ± 606 nM; EC50 ([2]; Severe acute respiratory syndrome coronavirus 2, Vero C1008, read-out: EC50 κ, Average): 1660 nM; EC50 ([3]; Severe acute respiratory syndrome coronavirus 2, Vero C1008, read-out: EC50 against Y7-501/γ): 2490 ± 292 nM; EC50 ([3]; Severe acute respiratory syndrome coronavirus 2, Vero C1008, read-out: EC50 γ, Average): 2490 nM; EC50 ([3]; Severe acute respiratory syndrome coronavirus 2, Vero C1008, read-out: EC50 γ, individual assays): 2500 nM; EC50 ([4]; Severe acute respiratory syndrome coronavirus 2, Vero C1008, read-out: EC50 against QHN001/α): 1980 ± 559 nM; EC50 ([4]; Severe acute respiratory syndrome coronavirus 2, Vero C1008, read-out: EC50 α, Average): 1980 nM; EC50 ([4]; Severe acute respiratory syndrome coronavirus 2, Vero C1008, read-out: EC50 α, individual assays): 2540 nM; EC50 ([5]; Severe acute respiratory syndrome coronavirus 2, Vero C1008, read-out: EC50 against K1734/δ): 1500 ± 78 nM; EC50 ([5]; Severe acute respiratory syndrome coronavirus 2, Vero C1008, read-out: EC50 δ, individual assays): 1510 nM"
CC(C)(C)[C@H](NC(=O)C(F)(F)F)C(=O)N1C[C@H]2[C@@H]([C@H]1C(=O)N[C@@H](C[C@@H]1CCNC1=O)C(=O)c1nc3c(F)cccc3s1)C2(C)C [TKB245],19 nM and 36 nM,19.2 nM and 22.4 nM,10 nM and 58.2 nM and 100 nM,90 nM and 20 nM and 15.8 nM,27.6 nM and 33.6 nM,28 ± 9 nM,28.4 nM,20.6 nM,56 ± 45 nM,56.1 nM,42 ± 42 nM,42 nM,30.4 nM,considerably reduced titers of both variants in lung,"EC50 [6]: ~30 nM; Chest micro-CT images vs vehicle control [8]: No relevant differences were; Lung immunohistochemistry, SARS-CoV-2 nucleocapsid protein vs vehicle group [8]: no relevant change in number"
CC(C)(C)[C@H](NC(=O)C(F)(F)F)C(=O)N1C[C@H]2[C@@H]([C@H]1C(=S)N[C@@H](C[C@@H]1CCNC1=O)C(=O)c1nc3c(F)cccc3s1)C2(C)C [TKB248],290 nM and 291 nM and 282 nM,215 nM and 145 nM,288 nM and 165 nM,300 nM and 299 nM,270 nM and 311 nM and 240 nM,287 ± 5 nM,288 nM,180 nM,228 ± 61 nM,228 nM,300 ± 1 nM,300 nM,274 nM,exerted comparable efficacy against both Omicron BA.1 and BA.2 variants,"EC50 ([2]; read-out: EC50 against 5356/k): 180 ± 35 nM; EC50 ([5]; read-out: EC50 against K1734/δ): 273 ± 36 nM; Peak ratio, Dimer-1X compound [9]: 9.9%; Peak ratio, Dimer-2X compound [9]: 28.4%"
